The results in this text go back to the NIST ThermoML archive (doi:10.1016/j.jct.2003.09.010).

± gives the expanded uncertainty stated by the source.

The series in a line: mn = molality of the nth substance listed, in mol/kg. The conditions noted are these: 298.15 K, 101 kPa, Liquid.

As to `CCCCCCCCCCCCCCCC[N+](C)(C)C.[Br-]` [N,N,N-trimethyl-1-hexadecanaminium bromide] + O, the mass density (m1 = 1) is 1004.43 ± 0.46 kg/m3.

As for `CCCCCCCCCCCCOS(=O)(=O)[O-].[Na+]` [sodium dodecyl sulfate] + O, the mass density (m1 = 0.05) is 999.133 ± 0.27 kg/m3 [middle of 5 runs], the mass density (m1 = 0.5) is 1014.57 ± 0.3 kg/m3 [middle of 5 runs] and the mass density (m1 = 1) was 1027.43 ± 0.33 kg/m3 [middle of 7 runs].
